# Assay results taken from patent US20240391876A1 (priority 2021, published 2024).
# Experiments:
# RET G-quadruplex = assay: Taq DNA polymerase stop assay; assay type: biochemical; conditions: quinacrine 0, 0.5, 1.0 and 2.0 μM
# Method: DNA polymerase stop assay was performed at increasing concentrations of each drug. Lanes M represents the di-deoxy sequencing G-reactions with the same template, which serves as the marker to locate the exact stop site. Bands P, S, and F represent the position of the free primer, stop products by G-quadruplex structures, and full-length products, respectively, on the gel.
# The G4-stabilizing effect of quinacrine was validated with the RET G4 as a model G4 using a DNA polymerase stop assay and CD spectroscopic studies. In this assay, the ligand mediated stabilization of the G-quadruplex structure arising from the DNA template prevents the progression of the Taq DNA polymerase during primer extension.
# [1] = mice; 30 mg/kg daily oral gavage; after 28 d of treatment; cited from earlier work
# RET G4 = assay: CD spectroscopy and CD melting curve of RET G4; assay type: binding
# Method: In both graphs in FIG. 6, at the 260 wavelength lines in descending order are 20° C., 30° C., 40° C., 50° C., 60° C., 70° C., 80° C., and 90° C.
# Quinacrine was further investigated as to whether it stabilizes the RET G4 structure using circular dichroism (CD) spectroscopic analysis. […] Next, the thermal stability of the G-quadruplex structure was examined by monitoring the CD melting curve in the absence and presence of quinacrine (5 equivalent) at increasing temperatures.
# [2] = tested on: COVID-19 RNA G4s (SG1 and SG2); assay: UV-Vis absorption spectra of quinacrine with RNA G4; assay type: binding, SARS-COV-2; conditions: SG1, SG2 at different concentrations; 10 mM Tris-HCl pH 7.6, 5 mM NaCl, 50 mM KCl
# Text: UV-Vis spectroscopy is the most common and convenient technique to study the interaction between small molecules with nucleic acids, including RNA G4. Molecules containing aromatic chromophore groups interact with RNA G4, and the molecular interaction can be studied based on the changes in the absorption spectra. The hypochromic effect is a spectral property for RNA G4-drug interactions that are closely related to the G4 structure. […] With the addition of G4 RNA, the intensity at both 350 nm and 450 nm bands decreased, inducing the hypochromicity at these wavelengths (FIG. 7). This can be attributed to the decrease in the number of chromophores in solution due to the interaction of quinacrine with RNA G4.
# SARS-COV-2 = assay: Cytopathic effect (CPE) assay against COVID-19 in Vero E6 cells, neutral red uptake; assay type: cell-based; conditions: 2 μg/mL quinacrine, 120 h p.i., at the 30% cytotoxic concentration
# Method: The cytoprotective effect of quinacrine was determined by the cell viability, which is measured by the uptake of neutral red dye at A540.
# In this study, the antiviral efficiency of quinacrine was evaluated against COVID-19 in vitro. Antiviral activity was evaluated using a cytopathic effect (CPE) assay, which determines the ability of the compound to prevent viral CPE in African green monkey kidney cells, Vero E6. Four dilutions of the test compound were evaluated, and the effective antiviral concentration was determined by regression analysis. The cytotoxicity of the test compound was determined in parallel by the neutral red cell cytotoxicity assay, a common method used to detect cell viability or drug cytotoxicity. CPE was determined by the uptake of neutral red dye. Quinacrine protects more than 80% of the infected cells from the cytopathic effects caused by COVID-19 at 2 μg/mL concentration (FIG. 8). The tissue distribution of quinacrine was investigated in a previous study by treating mice daily by oral gavage with 30 mg/kg of quinacrine (35% v/v ethanol in distilled water) dissolved in 100 μL total volume for 28 days.
# [3] = tested on: Influenza A/California/07/2009 (H1N1); assay: Cytopathic effect (CPE) assay against Influenza A (H1N1), neutral red uptake; assay type: cell-based, Influenza A virus; conditions: 2 μg/mL quinacrine; three days incubation
# COVID-19 [4] = assay: Intravenous administration of quinacrine to a COVID-19 patient (Example 2); assay type: in vivo, human
# Method: The following example describes treatment strategies for COVID-19 involving an intravenous administration of Quinacrine to a patient.
# A person wakes up one morning with a fever of 102.4° F. and a tightness in their chest. They are an essential hospital worker and so believes they may have contracted COVID-19. Therefore, they call their primary care physician to determine their next steps. The primary care physician decides that they should be brought in for testing since they are at a higher risk for complications because the patient has severe asthma. The person gets a nose swab for the test. The doctor mentions that they will call the patient with the results as soon as possible. For now, the person is told to self-isolate and to monitor any changes in symptoms, calling if things get progressively worse. Quickly the person's condition deteriorates, and they begin to experience difficulty breathing and pressure in their chest. The doctor admits them to the ICU of the hospital because they require supplemental oxygen to maintain their oxygen levels. Shortly after being admitted to the ICU, the result of their test comes back positive for COVID-19. The ICU doctor gives the patient an intravenous injection of 200 mg initially every 6 hours for 5 doses, followed by 100 mg 3 times a day for 6 days. Alternatively, 100 mg is administered via IV infusion 3 times a day for 5 to 7 days. […]
# COVID-19 [5] = assay: Oral administration of quinacrine to a COVID-19 patient (Example 3); assay type: in vivo, human
# Method: The following example describes treatment strategies for COVID-19 involving an oral administration of Quinacrine.
# Recently, a COVID-19 test for a person has come back positive. […] After a week at the hospital, the patient's symptoms show no signs of improvement. The doctors at the hospital prescribe to the patient an initial 200 mg dose orally every 6 hours for 5 doses, followed by 100 mg 3 times a day for 6 days. Alternatively, 100 mg is orally administered to the patient after meals 3 times a day for 5 to 7 days. After a week and a half of taking quinacrine daily, the patient's symptoms improve. […] The patient is released from the hospital and is told to stay in self-isolation for another week.
# COVID-19 and influenza = assay: Oral administration of quinacrine for prevention of COVID-19 and influenza (Example 5); assay type: in vivo, human; conditions: 300 mg orally twice a day for a month
# Method: The following example describes prevention strategies for COVID-19 and influenza involving an oral administration of Quinacrine.
# A person wants to prevent getting sick during the upcoming winter season. Therefore, they schedule an appointment with their primary care physician to discuss their options. At the appointment, the doctor recommends taking a 300 mg pill of quinacrine orally twice a day for the next month.
smiles,measurement,setting,value
CCN(CC)CCCC(C)Nc1c2ccc(Cl)cc2nc2ccc(OC)cc12 (centres unmarked) [quinacrine],amount of arrested product (stop product by G-quadruplex),RET G-quadruplex,dose-dependent increase
same,mean concentration in whole blood,[1],470 ng/mL
same,mean lung concentration,[1],2600 ng/mL
same,positive CD peak at 262 nm (parallel G-quadruplex structure),RET G4; in the presence of quinacrine,not affected
same,melting temperature (Tm) of the RET G4 structure,"RET G4; quinacrine 5 equivalent, increasing temperatures",significantly increased
same,absorbance intensity at 350 nm and 450 nm bands on addition of G4 RNA,[2],decreased
same,reduction of CPE due to SARS-COV-2 / protection of infected cells from cytopathic effects,SARS-COV-2,more than 80%
same,protection of infected cells from cytopathic effects caused by Influenza A (H1N1),[3],more than 80%
same,side effects,"COVID-19 [4]; intravenous quinacrine, patient",No side effects
same,clinical outcome,"COVID-19 [4]; person, intravenous 200 mg every 6 hours for 5 doses, then 100 mg 3 times a day for 6 days, after a week",tests negative for COVID-19
same,side effects,"COVID-19 [5]; oral quinacrine, patient",No side effects
same,clinical outcome,"COVID-19 [5]; person, oral 200 mg every 6 hours for 5 doses, then 100 mg 3 times a day for 6 days",tests negative for COVID-19
same,side effects,COVID-19 and influenza,No side effects
same,prevention outcome,COVID-19 and influenza; person,without getting sick
